Measured values from US20040102387A1 (priority 2002, published 2004).

Molecular target: Botulinum neurotoxin type A (Clostridium botulinum, UniProt P0DPI0)
Type: cell-based

Botulinum neurotoxin type A, sequence (P0DPI0 whole entry, looked up): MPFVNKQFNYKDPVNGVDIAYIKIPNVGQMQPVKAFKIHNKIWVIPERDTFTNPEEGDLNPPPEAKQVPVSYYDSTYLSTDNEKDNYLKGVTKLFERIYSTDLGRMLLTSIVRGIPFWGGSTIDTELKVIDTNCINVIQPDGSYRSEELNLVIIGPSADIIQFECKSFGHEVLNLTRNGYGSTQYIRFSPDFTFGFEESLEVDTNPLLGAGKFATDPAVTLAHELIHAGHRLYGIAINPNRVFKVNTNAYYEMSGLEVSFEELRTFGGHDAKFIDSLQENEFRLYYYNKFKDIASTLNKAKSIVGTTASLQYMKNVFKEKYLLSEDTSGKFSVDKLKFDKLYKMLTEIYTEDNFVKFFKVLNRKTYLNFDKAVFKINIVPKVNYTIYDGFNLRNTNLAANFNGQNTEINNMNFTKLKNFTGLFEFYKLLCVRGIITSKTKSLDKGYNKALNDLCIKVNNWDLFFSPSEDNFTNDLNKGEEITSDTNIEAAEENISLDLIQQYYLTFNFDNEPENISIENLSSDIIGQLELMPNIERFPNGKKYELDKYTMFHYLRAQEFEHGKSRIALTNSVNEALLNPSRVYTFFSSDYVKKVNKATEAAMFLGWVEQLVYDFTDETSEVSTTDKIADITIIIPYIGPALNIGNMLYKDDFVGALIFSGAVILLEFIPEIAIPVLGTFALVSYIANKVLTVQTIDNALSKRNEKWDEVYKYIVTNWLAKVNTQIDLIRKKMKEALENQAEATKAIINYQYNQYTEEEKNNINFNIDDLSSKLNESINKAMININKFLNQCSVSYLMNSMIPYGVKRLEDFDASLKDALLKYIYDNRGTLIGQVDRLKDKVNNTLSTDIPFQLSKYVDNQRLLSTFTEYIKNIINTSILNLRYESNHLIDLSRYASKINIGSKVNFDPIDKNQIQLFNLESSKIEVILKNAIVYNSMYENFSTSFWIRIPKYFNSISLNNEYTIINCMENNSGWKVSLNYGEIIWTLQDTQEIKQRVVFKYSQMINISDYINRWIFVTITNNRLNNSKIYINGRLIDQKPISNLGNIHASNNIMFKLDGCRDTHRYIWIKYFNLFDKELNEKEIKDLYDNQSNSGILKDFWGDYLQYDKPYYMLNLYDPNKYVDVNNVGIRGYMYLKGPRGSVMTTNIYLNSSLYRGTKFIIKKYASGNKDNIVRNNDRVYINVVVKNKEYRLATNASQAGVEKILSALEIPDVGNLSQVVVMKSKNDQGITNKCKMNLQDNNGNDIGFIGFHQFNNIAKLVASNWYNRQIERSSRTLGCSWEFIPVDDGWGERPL

Row | Compound | neurotoxin-neutralizing activity (neuromuscular contractility, FIG. 2)
1 | C[C@@H]1O[C@@H](OC[C@H]2O[C@@H](Oc3c(-c4ccc(O)c(O)c4)oc4cc(O)cc(O)c4c3=O)[C@H](O)[C@@H](O)[C@@H]2O)[C@H](O)[C@H](O)[C@H]1O [first component, rutin] | high toxin-neutralizing activities
2 | C[C@@H]1O[C@@H](OC[C@H]2O[C@@H](Oc3c(-c4ccc(O)cc4)oc4cc(O)cc(O)c4c3=O)[C@H](O)[C@@H](O)[C@@H]2O)[C@H](O)[C@H](O)[C@H]1O [fourth component, nicotiflorin] | high toxin-neutralizing activities
3 | kaempferol-3-(O-glc-rha)-4′-O-rha [second component] | high toxin-neutralizing activities
4 | kaempferol-3-O-glc-(6-1)-rha-(3-1)-glc [third component] | high toxin-neutralizing activities
